Laboratory results from patent US7524930B2, “Tumor antigen” (Green Peptide Co., Ltd, priority 2003, dated 2009).

Columns and labels:
[1] = system: human peripheral blood mononuclear cells (PBMC); assay: CTL induction by peptide from PBMC of HLA-A2-positive cancer patients and healthy individuals, IFN-γ against peptide-pulsed T2 cells (Example 6); assay type: cell-based; conditions: for INF-γ production: peptide-pulsed T2 cells; for Healthy individuals in whom CTL were induced from PBMC: six healthy individuals; for Patients in whom peptide-specific HLA-A2-restricted CTL were induced from PBMC: sixteen HLA-A2-positive cancer patients
Experimental: For six peptides (P21, P22, P24, P26, P30, and P32) with a purity of 95% or higher among peptides from P20 to P32 derived from gene 7 and CPSF among the tumor antigen peptide obtained in Example 4, the activity to induce CTL in vitro from human peripheral blood mononuclear cells (PBMC) was examined using IFN-γ production as an indicator. PBMC used was prepared from each peripheral blood of sixteen HLA-A2-positive cancer patients (4 patients with pancreatic cancer, seven patients with stomach cancer, and 5 patients with colon cancer) and six healthy individuals. Specifically, 1×10^5 PBMC was added to each well of 96-well U-bottom type microculture plate (Nunc Corp.) and incubated together with 10 μM of each of the above-described peptides in 200 μl culture medium. The culture medium consisted of 45% RPMI-1640, 45% AIM-V (Invitrogen Corp.,) 10% fetal calf serum (FCS), 100U/ml of human interleukin-2, and […] MEM nonessential amino acid solution (Invitrogen Corp.). At day 4 and day 7 after the start of culturing, half of the culture medium was removed and replaced with the above-described composition containing each corresponding peptide. At day 10 after the start of culturing, the cells were collected and washed, followed by reacting with T2 cells, which were pulsed with each corresponding peptide, to measure the amount of IFN-γ produced.

OK-CTLp or OK-CTL clone = assay: Recognition of peptide-pulsed T2 cells by OK-CTLp or OK-CTL clone (IFN-γ ELISA); assay type: cell-based, human
[2] = system: Panc-1 pancreatic adenocarcinoma cell (HLA-A2); assay: 6-h 51Cr-releasing test of peptide-stimulated PBMC against Panc-1 (Example 6); assay type: cell-based, human
Experimental: Meanwhile, the above-described cells cultured for 10 days after stimulation by the peptide were further cultured for 10 days. The cytotoxicity of the obtained cells against the Panc-1 pancreatic adenocarcinoma cell (HLA-A2) was measured by the standard 6-h ^51Cr-releasing test in an E/T ratio of 10:1. The results obtained are presented as % specific lysis (table 7). Together with this step, cytotoxicity against SSTW-9 tumor cell as the HLA-A2^− tumor cell was measured to use as a background that was subtracted from the above-described result.

[3] = PBMC of colon cancer patient 12
[4] = PBMC of colon cancer patient 13
[5] = PBMC of colon cancer patient 14
[6] = PBMC of colon cancer patient 15
[7] = PBMC of colon cancer patient 16
[8] = PBMC of pancreatic cancer patient 1
[9] = PBMC of pancreatic cancer patient 2
[10] = PBMC of pancreatic cancer patient 3
[11] = PBMC of pancreatic cancer patient 4
[12] = PBMC of stomach cancer patient 5
[13] = PBMC of stomach cancer patient 6
[14] = PBMC of stomach cancer patient 7
[15] = PBMC of stomach cancer patient 8
[16] = PBMC of stomach cancer patient 9
[17] = PBMC of stomach cancer patient 10
[18] = PBMC of stomach cancer patient 11
[19] = concentration of peptide 0.1 μM
[20] = PBMC of colon cancer patient 12, Panc-1, E/T 10:1
[21] = PBMC of colon cancer patient 14, Panc-1, E/T 10:1
[22] = PBMC of pancreatic cancer patient 2, Panc-1, E/T 10:1, SSTW-9 background subtracted
[23] = PBMC of pancreatic cancer patient 4, Panc-1, E/T 10:1

| Sequence | INF-γ production [1, 3] | INF-γ production [1, 4] | INF-γ production [1, 5] | INF-γ production [1, 6] | INF-γ production [1, 7] | INF-γ production ([1]; PBMC of healthy individual HD1) | INF-γ production ([1]; PBMC of healthy individual HD2) | INF-γ production ([1]; PBMC of healthy individual HD3) | INF-γ production ([1]; PBMC of healthy individual HD4) | INF-γ production ([1]; PBMC of healthy individual HD5) | INF-γ production ([1]; PBMC of healthy individual HD6) | INF-γ production [1, 8] | INF-γ production [1, 9] | INF-γ production [1, 10] | INF-γ production [1, 11] | INF-γ production [1, 12] | IFN-γ production (OK-CTLp or OK-CTL clone; [19]) | IFN-γ production (OK-CTLp or OK-CTL clone; concentration of peptide 1 μM) | IFN-γ production (OK-CTLp or OK-CTL clone; concentration of peptide 10 μM) | IFN-γ production (OK-CTLp or OK-CTL clone; concentration of peptide 50 μM) | further results |
| --- | --- | --- | --- | --- | --- | --- | --- | --- | --- | --- | --- | --- | --- | --- | --- | --- | --- | --- | --- | --- | --- |
| DMWTVIAPV (Designed peptide having an ability to activate HLA-A2 restricted Cytotoxic T lymphocytes) [Peptide P22, CPSF 534-542] | 92 pg/mL | 179 pg/mL | 80 pg/mL | 5 pg/mL | 0 pg/mL | 0 pg/mL | 0 pg/mL | 0 pg/mL | 0 pg/mL | 0 pg/mL | 14 pg/mL | 0 pg/mL | 38 pg/mL | 0 pg/mL | 8 pg/mL | 0 pg/mL | 254 pg/mL | 1027 pg/mL | 431 pg/mL | 407 pg/mL | INF-γ production [1, 13]: 0 pg/mL; INF-γ production [1, 14]: 0 pg/mL; INF-γ production [1, 15]: 0 pg/mL; INF-γ production [1, 16]: 0 pg/mL; INF-γ production [1, 17]: 0 pg/mL; INF-γ production [1, 18]: 0 pg/mL; Healthy individuals in whom CTL were induced from PBMC [1]: 33%; Patients in whom peptide-specific HLA-A2-restricted CTL were induced from PBMC [1]: 38%; % specific lysis [2, 20]: 28%; % specific lysis [2, 21]: 19%; % specific lysis [2, 22]: 37% |
| KVHPVIWSL [Peptide P21] | 0 pg/mL | 0 pg/mL | 66 pg/mL | 0 pg/mL | 140 pg/mL | 0 pg/mL | 0 pg/mL | 58 pg/mL | 5 pg/mL | 224 pg/mL | 97 pg/mL | 0 pg/mL | 7 pg/mL | 0 pg/mL | 543 pg/mL | 0 pg/mL | 428 pg/mL | 501 pg/mL | 81 pg/mL | 195 pg/mL | INF-γ production [1, 13]: 0 pg/mL; INF-γ production [1, 14]: 0 pg/mL; INF-γ production [1, 15]: 5 pg/mL; INF-γ production [1, 16]: > 1500 pg/mL; INF-γ production [1, 17]: 0 pg/mL; INF-γ production [1, 18]: 136 pg/mL; Healthy individuals in whom CTL were induced from PBMC [1]: 50%; Patients in whom peptide-specific HLA-A2-restricted CTL were induced from PBMC [1]: 31%; % specific lysis [2, 21]: 11%; % specific lysis [2, 23]: 12%; % specific lysis ([2]; PBMC of stomach cancer patient 9, Panc-1, E/T 10:1): 27%; % specific lysis ([2]; PBMC of stomach cancer patient 11, Panc-1, E/T 10:1): 18% |
| LLLKYTEKL [Peptide P24] | – | – | – | – | – | – | – | – | – | – | – | – | – | – | – | – | 728 pg/mL | – | 103 pg/mL | 2 pg/mL | – |
| LLRRADFHV (Designed peptide having an ability to activate HLA-A2 restricted Cytotoxic T lymphocytes) [Peptide P26, Gene 7 1296-1304] | 0 pg/mL | 0 pg/mL | 0 pg/mL | 40 pg/mL | 45 pg/mL | 0 pg/mL | 0 pg/mL | 0 pg/mL | 0 pg/mL | 13 pg/mL | 0 pg/mL | 0 pg/mL | 35 pg/mL | 0 pg/mL | 77 pg/mL | 53 pg/mL | 141 pg/mL | 418 pg/mL | 1239 pg/mL | 0 pg/mL | INF-γ production [1, 13]: 0 pg/mL; INF-γ production [1, 14]: 0 pg/mL; INF-γ production [1, 15]: 11 pg/mL; INF-γ production [1, 16]: 8 pg/mL; INF-γ production [1, 17]: 0 pg/mL; INF-γ production [1, 18]: 0 pg/mL; Patients in whom peptide-specific HLA-A2-restricted CTL were induced from PBMC [1]: 31%; % specific lysis ([2]; PBMC of colon cancer patient 15, Panc-1, E/T 10:1): 12%; % specific lysis [2, 22]: 36%; % specific lysis [2, 23]: 20%; % specific lysis ([2]; PBMC of stomach cancer patient 5, Panc-1, E/T 10:1): 11% |
| LMLQNALTIM (LMLQNALTTM; Designed peptide having an ability to activate HLA-A2 restricted Cytotoxic T lymphocytes) [Peptide P30, Gene 7 1359-1368] | 0 pg/mL | 41 pg/mL | 33 pg/mL | 0 pg/mL | 68 pg/mL | 0 pg/mL | 0 pg/mL | 14 pg/mL | 0 pg/mL | 0 pg/mL | 0 pg/mL | 0 pg/mL | 12 pg/mL | 0 pg/mL | 73 pg/mL | 0 pg/mL | 88 pg/mL | 7001 pg/mL | – | – | INF-γ production [1, 13]: 0 pg/mL; INF-γ production [1, 14]: 0 pg/mL; INF-γ production [1, 15]: 146 pg/mL; INF-γ production [1, 16]: 92 pg/mL; INF-γ production [1, 17]: 46 pg/mL; INF-γ production [1, 18]: 0 pg/mL; Patients in whom peptide-specific HLA-A2-restricted CTL were induced from PBMC [1]: 44%; % specific lysis ([2]; PBMC of colon cancer patient 13, Panc-1, E/T 10:1): 12%; % specific lysis [2, 21]: 10%; % specific lysis [2, 23]: 11%; % specific lysis ([2]; PBMC of stomach cancer patient 8, Panc-1, E/T 10:1): 18%; % specific lysis ([2]; PBMC of stomach cancer patient 10, Panc-1, E/T 10:1): 26% |
| SLLYLNQSV [Peptide P20] | – | – | – | – | – | – | – | – | – | – | – | – | – | – | – | – | 344 pg/mL | 643 pg/mL | 0 pg/mL | 34 pg/mL | – |
| TMLPHHAGL [Peptide P25] | – | – | – | – | – | – | – | – | – | – | – | – | – | – | – | – | 69 pg/mL | 1569 pg/mL | 25 pg/mL | 122 pg/mL | – |
| TQLATYSFEV (Designed peptide having an ability to activate HLA-A2 restricted Cytotoxic T lymphocytes) [Peptide P32, CPSF 456-465] | 57 pg/mL | 0 pg/mL | 0 pg/mL | 0 pg/mL | 4 pg/mL | 0 pg/mL | 0 pg/mL | 0 pg/mL | 0 pg/mL | 0 pg/mL | 0 pg/mL | 0 pg/mL | 12 pg/mL | 0 pg/mL | 0 pg/mL | 0 pg/mL | – | – | – | – | INF-γ production [1, 13]: 0 pg/mL; INF-γ production [1, 14]: 0 pg/mL; INF-γ production [1, 15]: 0 pg/mL; INF-γ production [1, 16]: 0 pg/mL; INF-γ production [1, 17]: 0 pg/mL; INF-γ production [1, 18]: 0 pg/mL; Patients in whom peptide-specific HLA-A2-restricted CTL were induced from PBMC [1]: 7%; % specific lysis [2, 20]: 18% |
| YQLPDWRLV [Peptide P29] | – | – | – | – | – | – | – | – | – | – | – | – | – | – | – | – | 0 pg/mL | – | 86 pg/mL | 362 pg/mL | – |
